According to PubChem BioAssay (NCI):
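These data come from cells grown in 96-well plates and exposed to compound for 48 hours at five concentrations. TGI is the concentration that stops growth completely.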

Key:
Test in all cases: DTP human tumour cell line panel, 48 h
OVCAR-8 ovarian = test system: OVCAR-8 ovarian
OVCAR-4 ovarian = test system: OVCAR-4 ovarian
MALME-3M melanoma = test system: MALME-3M melanoma
UACC-257 melanoma = test system: UACC-257 melanoma
LOX IMVI melanoma = test system: LOX IMVI melanoma
SK-MEL-5 melanoma = test system: SK-MEL-5 melanoma
NCI/ADR-RES ovarian = test system: NCI/ADR-RES ovarian
A498 renal = test system: A498 renal
A549 NSCLC = test system: A549 NSCLC
SNB-19 CNS = test system: SNB-19 CNS
DU-145 prostate = test system: DU-145 prostate
ACHN renal = test system: ACHN renal
HCC-2998 colon = test system: HCC-2998 colon
HCT-116 colon = test system: HCT-116 colon
M14 melanoma = test system: M14 melanoma
MCF7 breast = test system: MCF7 breast
HCT-15 colon = test system: HCT-15 colon
K-562 leukemia = test system: K-562 leukemia
SF-268 CNS = test system: SF-268 CNS
BT-549 breast = test system: BT-549 breast
RXF 393 renal = test system: RXF 393 renal
IGROV1 ovarian = test system: IGROV1 ovarian
MDA-MB-435 = test system: MDA-MB-435
RPMI-8226 leukemia = test system: RPMI-8226 leukemia
SW-620 colon = test system: SW-620 colon
NCI-H460 lung = test system: NCI-H460 lung
SF-539 CNS = test system: SF-539 CNS
SN12C renal = test system: SN12C renal
TK-10 renal = test system: TK-10 renal
HL-60(TB) leukemia = test system: HL-60(TB) leukemia
SK-MEL-2 melanoma = test system: SK-MEL-2 melanoma
OVCAR-5 ovarian = test system: OVCAR-5 ovarian
NCI-H522 lung = test system: NCI-H522 lung
T-47D breast = test system: T-47D breast
NCI-H226 lung = test system: NCI-H226 lung
COLO 205 colon = test system: COLO 205 colon
HS 578T breast = test system: HS 578T breast
MOLT-4 leukemia = test system: MOLT-4 leukemia
CCRF-CEM leukemia = test system: CCRF-CEM leukemia
SNB-75 CNS = test system: SNB-75 CNS
SF-295 CNS = test system: SF-295 CNS
HOP-62 NSCLC = test system: HOP-62 NSCLC
MDA-N = test system: MDA-N
HT29 colon = test system: HT29 colon
MDA-MB-231 breast = test system: MDA-MB-231 breast
KM12 colon = test system: KM12 colon
CAKI-1 renal = test system: CAKI-1 renal
786-0 renal = test system: 786-0 renal
EKVX NSCLC = test system: EKVX NSCLC
UACC-62 melanoma = test system: UACC-62 melanoma
SK-OV-3 ovarian = test system: SK-OV-3 ovarian
U251 CNS = test system: U251 CNS
SK-MEL-28 melanoma = test system: SK-MEL-28 melanoma
NCI-H23 lung = test system: NCI-H23 lung
OVCAR-3 ovarian = test system: OVCAR-3 ovarian
PC-3 prostate = test system: PC-3 prostate
HOP-92 NSCLC = test system: HOP-92 NSCLC
UO-31 renal = test system: UO-31 renal
SR leukemia = test system: SR leukemia

Which results are given for `CCOC(=O)c1c(-c2ccc(Br)cc2)ccn1C`?
TGI (OVCAR-8 ovarian): > 10 µM; TGI (OVCAR-4 ovarian): > 10 µM; TGI (MALME-3M melanoma): > 10 µM; TGI (UACC-257 melanoma): > 10 µM; TGI (LOX IMVI melanoma): > 10 µM; TGI (SK-MEL-5 melanoma): > 10 µM; TGI (NCI/ADR-RES ovarian): > 10 µM; TGI (A498 renal): > 10 µM; TGI (A549 NSCLC): > 10 µM; TGI (SNB-19 CNS): > 10 µM; TGI (DU-145 prostate): > 10 µM; TGI (ACHN renal): > 10 µM; TGI (HCC-2998 colon): > 10 µM; TGI (HCT-116 colon): > 10 µM; TGI (M14 melanoma): > 10 µM; TGI (MCF7 breast): > 10 µM; TGI (HCT-15 colon): > 10 µM; TGI (K-562 leukemia): > 10 µM; TGI (SF-268 CNS): > 10 µM; TGI (BT-549 breast): > 10 µM; TGI (RXF 393 renal): > 10 µM; TGI (IGROV1 ovarian): > 10 µM; TGI (MDA-MB-435): > 10 µM; TGI (RPMI-8226 leukemia): > 10 µM; TGI (SW-620 colon): > 10 µM; TGI (NCI-H460 lung): > 10 µM; TGI (SF-539 CNS): > 10 µM; TGI (SN12C renal): > 10 µM; TGI (TK-10 renal): > 10 µM; TGI (HL-60(TB) leukemia): > 10 µM; TGI (SK-MEL-2 melanoma): > 10 µM; TGI (OVCAR-5 ovarian): > 10 µM; TGI (NCI-H522 lung): > 10 µM; TGI (T-47D breast): > 10 µM; TGI (NCI-H226 lung): > 10 µM; TGI (COLO 205 colon): > 10 µM; TGI (HS 578T breast): > 10 µM; TGI (MOLT-4 leukemia): > 10 µM; TGI (CCRF-CEM leukemia): > 10 µM; TGI (SNB-75 CNS): > 10 µM; TGI (SF-295 CNS): > 10 µM; TGI (HOP-62 NSCLC): > 10 µM; TGI (MDA-N): > 10 µM; TGI (HT29 colon): > 10 µM; TGI (MDA-MB-231 breast): > 10 µM; TGI (KM12 colon): > 10 µM; TGI (CAKI-1 renal): > 10 µM; TGI (786-0 renal): > 10 µM; TGI (EKVX NSCLC): > 10 µM; TGI (UACC-62 melanoma): > 10 µM; TGI (SK-OV-3 ovarian): > 10 µM; TGI (U251 CNS): > 10 µM; TGI (SK-MEL-28 melanoma): > 10 µM; TGI (NCI-H23 lung): > 10 µM; TGI (OVCAR-3 ovarian): > 10 µM; TGI (PC-3 prostate): > 10 µM

`CCOC(=O)CCC(NC(=O)OCc1ccccc1)C(=O)NC(CCC(=O)OCC)C(=O)NNC(=O)OC(C)(C)C` (stereo unspecified) was tested. Which TGI (OVCAR-8 ovarian) did it give?
The TGI was greater than 100 µM.

And the TGI (MALME-3M melanoma)?
Its TGI is greater than 100 µM.

And the TGI (SK-MEL-5 melanoma)?
Its TGI is greater than 100 µM.

And the TGI (NCI/ADR-RES ovarian)?
The TGI was greater than 100 µM.

And the TGI (SNB-19 CNS)?
Its TGI is greater than 100 µM.

What about the TGI (DU-145 prostate) of the same molecule?
The TGI was greater than 100 µM.

And the TGI (HCC-2998 colon)?
Its TGI is greater than 100 µM.

And the TGI (HCT-116 colon)?
Its TGI is greater than 100 µM.

And the TGI (M14 melanoma)?
The TGI was greater than 100 µM.

And the TGI (MCF7 breast)?
Its TGI is greater than 100 µM.

And the TGI (HCT-15 colon)?
Its TGI is greater than 100 µM.

What about the TGI (K-562 leukemia) of the same molecule?
The TGI was greater than 100 µM.

And the TGI (BT-549 breast)?
The TGI was greater than 100 µM.

What about the TGI (HOP-92 NSCLC) of the same molecule?
Its TGI is greater than 100 µM.

What about the TGI (RXF 393 renal) of the same molecule?
Its TGI is greater than 100 µM.

What about the TGI (IGROV1 ovarian) of the same molecule?
The TGI was greater than 100 µM.

What about the TGI (MDA-MB-435) of the same molecule?
Its TGI is greater than 100 µM.

What about the TGI (RPMI-8226 leukemia) of the same molecule?
Its TGI is greater than 100 µM.

And the TGI (UO-31 renal)?
The TGI was greater than 100 µM.

What about the TGI (NCI-H460 lung) of the same molecule?
Its TGI is greater than 100 µM.

What about the TGI (SN12C renal) of the same molecule?
Its TGI is greater than 100 µM.

And the TGI (HL-60(TB) leukemia)?
The TGI was greater than 100 µM.

And the TGI (SK-MEL-2 melanoma)?
Its TGI is greater than 100 µM.

What about the TGI (OVCAR-5 ovarian) of the same molecule?
Its TGI is greater than 100 µM.

What about the TGI (NCI-H522 lung) of the same molecule?
The TGI was greater than 100 µM.

What about the TGI (T-47D breast) of the same molecule?
Its TGI is greater than 100 µM.

And the TGI (NCI-H226 lung)?
The TGI was greater than 100 µM.

And the TGI (COLO 205 colon)?
The TGI was greater than 100 µM.

What about the TGI (HS 578T breast) of the same molecule?
Its TGI is greater than 100 µM.

What about the TGI (SR leukemia) of the same molecule?
The TGI was greater than 100 µM.

What about the TGI (MOLT-4 leukemia) of the same molecule?
Its TGI is greater than 100 µM.

And the TGI (CCRF-CEM leukemia)?
The TGI was greater than 100 µM.

What about the TGI (SNB-75 CNS) of the same molecule?
The TGI was greater than 100 µM.

And the TGI (SF-295 CNS)?
Its TGI is greater than 100 µM.

What about the TGI (HOP-62 NSCLC) of the same molecule?
Its TGI is greater than 100 µM.

And the TGI (MDA-N)?
The TGI was greater than 100 µM.

And the TGI (KM12 colon)?
The TGI was greater than 100 µM.

And the TGI (CAKI-1 renal)?
Its TGI is greater than 100 µM.

What about the TGI (UACC-62 melanoma) of the same molecule?
The TGI was greater than 100 µM.

And the TGI (SK-OV-3 ovarian)?
Its TGI is greater than 100 µM.

What about the TGI (U251 CNS) of the same molecule?
The TGI was greater than 100 µM.

What about the TGI (SK-MEL-28 melanoma) of the same molecule?
Its TGI is greater than 100 µM.

What about the TGI (NCI-H23 lung) of the same molecule?
The TGI was greater than 100 µM.

And the TGI (OVCAR-3 ovarian)?
The TGI was greater than 100 µM.

What about the TGI (PC-3 prostate) of the same molecule?
The TGI was greater than 100 µM.
